In patent publication US12710419B2, “3D sensors for simultaneous detection of bioelectronic and biomechanical signals in tissue” (UNIVERSITY OF MASSACHUSETTS, priority 2022, dated 2026):

Test system: cardiomyocytes
Assay: Drug tests on cultured cardiomyocytes recorded with 3D nanotransistor biosensor (AP and mechanical signals)
Assay type: cell-based, human
Settings: for amplitude of AP / amplitude of broad peaks (mechanical signal): after adding drug, 20 μM, electrical recording
Description: Human embryonic stem cell-derived cardiomyocytes (hESC-CMs), which are considered promising in vitro models of cardiac health and disease, were cultured on the device substrate.
As part of experimental trials, drug tests were performed to further reveal the potential of implementing the sensors in pharmacological and pathological studies on cells. Blebbistatin, an inhibitor of myosin essential for motile machinery, was used to suppress cell contraction, as shown in FIG. 3A.
Conversely, lidocaine, a Na+ channel blocker, was added to suppress Na+ influx which contributes mostly to extracellular AP, as shown in FIG. 3D.
A Ca^2+ dysfunctional model was also built by treating the cardiomyocytes with isradipine, a Ca^2+ channel blocker used for treating a wide variety of cardiovascular disorders, as shown in FIG. 3G and its inset.
Cardiomyocytes were differentiated from human embryonic stem cells (hESCs, WAe009-A, H9) and human induced pluripotent stem cells (hiPSCs, generated from human primary T cells using episomal reprogramming) following methods described previously. Briefly, both cell types were maintained in the 60 mm tissue culture dishes coated with 10 ug/mL Matrigel in DMEM-F12 (Gibco™) using Essential 8 medium (Gibco™) and sub-passaged every 3-4 days. During differentiation, cells were seeded in a 12-well plate for 2-3 days until confluency, then replaced with RPMI 1640 medium (Gibco™) plus 1% B27-insulin (Gibco™) and 8 μM CHIR99021 (Tocris Bioscience™) (day 0). After 24 h (day 1), the medium was changed to RPMI 1640 plus 1% B27-insulin. On day 3, day 5, and day 7, the medium was changed to RPMI 1640 plus 1% B27-insulin and 5 μM IWR-1-endo (Cayman Chemical), RPMI 1640 plus 1% B27-insulin, and RPMI 1640 plus 1% B27, respectively. The medium was then replaced with RPMI 1640 plus 1% B27 every other day. […] During days 10-15, cardiomyocytes were ready for experiments. The cells were rinsed with 1×DPBS to remove calcium and inhibit contraction, then incubated with 0.5 mL of 0.5 mM Trypsin-EDTA (Gibco™) for 5 mins in a 37° C. incubator to dissociate into single cells. The EDTA was then aspirated, and the cells were dissociated by gently pipetting with 2 mL RPMI 1640 plus 1% B27 using a 1 ml pipet tip. The cells were transferred to a 15 mL conical tube and centrifuged at 250 g for 3 minutes, then resuspended with 2 mL RPMI 1640 plus 1% B27 supplemented with 10% Fetal Bovine Serum (Gibco™) and 10 μM Y-27632 ROCK inhibitor (Tocris Bioscience™). The device substrate integrated with nanotransistors was sterilized by incubating in 70% ethanol solution (1 h) at room temperature and then UV-treated (1 h). The device was coated with 20 μg/mL Matrigel in RPMI 1640 for 1 h at 37° C. Cells were seeded on the device substrate at the density of 3-5×10^5/cm^2. The cardiomyocytes were maintained using RPMI 1640 plus 1% B27 by changing the medium daily. Electrical recordings were typically performed starting from day 5 after the cell seeding.
All in vitro electrical recordings were carried out at the ambient environment with an Au reference electrode.

[1] = treatment, concentration not given

Structure (SMILES): Cc1cccc(CCN2CCC(C(=O)c3ccc(NS(C)(=O)=O)cc3)CC2)n1 [E-4031]
- contractile frequency and amplitude [1]: fluctuations in contractile frequency and amplitude

Structure (SMILES): Cc1ccc2c(c1)C(=O)C1(O)CCN(c3ccccc3)C1=N2 (centres unmarked) [blebbistatin]
- amplitude of AP: maintained the similar level
- amplitude of broad peaks (mechanical signal): substantial decrease
- broad peaks (mechanical signal) after washing out (washing out blebbistatin): restored the broad peaks

Structure (SMILES): COC(=O)C1=C(C)NC(C)=C(C(=O)OC(C)C)C1c1cccc2nonc12 (centres unmarked) [isradipine]
- AP (isradipine treatment, 20 nM): concurrent decrease
- mechanical signal (isradipine treatment, 20 nM): apparent suppression
- time to apparent suppression of mechanical signal (isradipine treatment, 20 nM): about 100 seconds
- mechanical and AP signals after washing out (washing out isradipine): restored both signals

Structure (SMILES): CCN(CC)CC(=O)Nc1c(C)cccc1C [lidocaine]
- amplitude of AP: prominent suppression
- amplitude of broad peaks (mechanical signal): no obvious effect
- AP amplitude (after lidocaine 20 μM, before ~10 nS): ~ 2 nS
- AP duration (after lidocaine 20 μM, before ~19 ms): ~ 40 ms

Structure (SMILES): NC[C@H](O)c1ccc(O)c(O)c1 [norepinephrine]
- conduction pathway [1]: alteration of the conduction pathway
- contractile frequency [1]: increased contractile frequency
